Experimental data: publication PMC7993393, “8-Mercaptoguanine-based inhibitors of Mycobacterium tuberculosis dihydroneopterin aldolase: synthesis, in vitro inhibition and docking studies” (Journal of Enzyme Inhibition and Medicinal Chemistry, 2021)

How the values were obtained:
MtFolB [1] = target: T1, MtFolB (Mycobacterium tuberculosis, UniProt P9WNC5); assay: MtFolB aldolase activity inhibition, continuous fluorescence assay (IC50); type: biochemical
T1 construct: made in house

MtFolB [2] = target: T1, MtFolB; assay: Mode of inhibition and inhibition constants on MtFolB aldolase activity (Lineweaver-Burk); type: biochemical; conditions: towards DHNP; for Inhibition mode: Lineweaver-Burk plots; for Ki: enzyme-inhibitor complex, read-out: Kis; for Ki / Kii: 300 nM MtFolB; for Kii: enzyme-substrate-inhibitor complex
SaFolB = test system: SaFolB; parameters: method as in PMID 15027862; conditions: read-out: IC50 against SaFolB; cited from earlier work
[3] = target: 6-hydroxymethyl-7,8-dihydropterin pyrophosphokinase from S. aureus (SaHPPK); parameters: method as in PMID 22276115; conditions: read-out: IC50 against SaHPPK; cited from earlier work

T1 sequence (P9WNC5 whole entry): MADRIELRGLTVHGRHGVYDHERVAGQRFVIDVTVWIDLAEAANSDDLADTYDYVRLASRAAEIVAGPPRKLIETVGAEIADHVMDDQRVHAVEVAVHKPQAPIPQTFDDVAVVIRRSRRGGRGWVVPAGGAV

| Compound | IC50 (MtFolB [1]) [nM] | melting point [°C] | other results |
| --- | --- | --- | --- |
| Nc1nc2[nH]c(SCc3ccc4ccccc4c3)nc2c(=O)[nH]1 [Compound 2b, 2-Amino-8-((naphthalen-2-ylmethyl)thio)-1,9-dihydro-6H-purin-6-one] | 1300 | 286 to 287 | Improvement of activity (fold) (MtFolB [1]; IC50 compared to benzyl derivative 2a): more than 5 fold |
| Nc1nc2[nH]c(SCC(=O)Nc3ccc(Br)cc3)nc2c(=O)[nH]1 [Compound 4f, 2-((2-Amino-6-oxo-6,9-dihydro-1H-purin-8-yl)thio)-N-(4-bromophenyl)acetamide] | 500 | > 310 | Inhibition mode (MtFolB [2]): Competitive; Ki (MtFolB [2]): 100 ± 30 nM |
| Nc1nc2[nH]c(SCc3ccc(Cl)cc3)nc2c(=O)[nH]1 [Compound 2f, 2-Amino-8-((4-chlorobenzyl)thio)-1,9-dihydro-6H-purin-6-one] | 2200 | 291 to 294 | – |
| Nc1nc2[nH]c(SCC(=O)Nc3ccc(F)cc3)nc2c(=O)[nH]1 [Compound 4d, 2-((2-Amino-6-oxo-6,9-dihydro-1H-purin-8-yl)thio)-N-(4-fluorophenyl)acetamide] | 2000 | – | – |
| Nc1nc2[nH]c(SCc3ccc(Cl)c(Cl)c3)nc2c(=O)[nH]1 [Compound 2g] | 5500 | 290 to 291 | IC50 fold higher (MtFolB [1]; IC50 compared to monosubstituted analog 2f): 2.5 fold |
| Nc1nc2[nH]c(SCC(=O)Nc3ccc4ccccc4c3)nc2c(=O)[nH]1 [Compound 4b, 2-((2-Amino-6-oxo-6,9-dihydro-1H-purin-8-yl)thio)-N-(naphthalen-2-yl)acetamide] | 700 | 286 to 289 | – |
| COc1ccccc1C(=O)CSc1nc2nc(N)[nH]c(=O)c2[nH]1 [Compound 3c, 2-Amino-8-((2–(2-methoxyphenyl)-2-oxoethyl)thio)-1,9-dihydro-6H-purin-6-one] | 1300 | – | – |
| Nc1nc2[nH]c(SCC(=O)NCc3ccccc3)nc2c(=O)[nH]1 [Compound 4c, 2-((2-Amino-6-oxo-6,9-dihydro-1H-purin-8-yl)thio)-N-benzylacetamide] | 12300 | – | – |
| CCCCCCCc1ccc(NC(=O)CSc2nc3c(=O)[nH]c(N)nc3[nH]2)cc1 [Compound 4h, 2-((2-Amino-6-oxo-6,9-dihydro-1H-purin-8-yl)thio)-N-(4-heptylphenyl)acetamide] | 400 | > 310 | Inhibition mode (MtFolB [2]): Non-competitive; Ki (MtFolB [2]): 500 ± 100 nM; Kii (MtFolB [2]): 1.2 ± 0.2 µM |
| Nc1nc2[nH]c(SCc3ccc(Br)cc3)nc2c(=O)[nH]1 [Compound 2h, 2-Amino-8-((4-bromobenzyl)thio)-1,9-dihydro-6H-purin-6-one] | 3000 | – | – |
| Nc1nc2[nH]c(SCC(=O)c3ccc(Cl)cc3)nc2c(=O)[nH]1 [Compound 3b, 2-Amino-8-((2–(4-chlorophenyl)-2-oxoethyl)thio)-1,9-dihydro-6H-purin-6-one] | 300 | 300 to 316 | Inhibition mode (MtFolB [2]): Non-competitive; Ki (MtFolB [2]): 400 ± 100 nM; Kii (MtFolB [2]): 0.9 ± 0.2 µM |
| Nc1nc2[nH]c(SCc3ccccc3Cl)nc2c(=O)[nH]1 [Compound 2e, 2-Amino-8-((2-chlorobenzyl)thio)-1,9-dihydro-6H-purin-6-one] | 4200 | – | – |
| Nc1nc2[nH]c(SCc3ccc(F)cc3)nc2c(=O)[nH]1 [Compound 2d, 2-Amino-8-((4-fluorobenzyl)thio)-1,9-dihydro-6H-purin-6-one] | 8000 | 299 to 300 | – |
| Nc1nc2[nH]c(SCC(=O)c3ccccc3)nc2c(=O)[nH]1 [Compound 3a, 2-Amino-8-((2-oxo-2-phenylethyl)thio)-1,9-dihydro-6H-purin-6-one] | 900 | > 310 | – |
| Nc1nc2[nH]c(SCC(=O)Nc3ccccc3)nc2c(=O)[nH]1 [Compound 4a, 2-((2-Amino-6-oxo-6,9-dihydro-1H-purin-8-yl)thio)-N-phenylacetamide] | 2200 | – | – |
| Nc1nc2[nH]c(SCc3ccccc3)nc2c(=O)[nH]1 [Compound 2a, 2-Amino-8-(benzylthio)-1,9-dihydro-6H-purin-6-one] | 7100 | – | – |
| Nc1nc2[nH]c(SCc3ccccc3F)nc2c(=O)[nH]1 [Compound 2c, 2-Amino-8-((2-fluorobenzyl)thio)-1,9-dihydro-6H-purin-6-one] | 8000 | 289 to 290 | – |
| Nc1nc2[nH]c(SCC(=O)Nc3ccc(Cl)cc3)nc2c(=O)[nH]1 [Compound 4e, 2-((2-Amino-6-oxo-6,9-dihydro-1H-purin-8-yl)thio)-N-(4-chlorophenyl)acetamide] | 800 | – | – |
| Nc1nc2nc(S)[nH]c2c(=O)[nH]1 [8-MG (1), 8-mercaptoguanine] | 300 | – | Inhibition mode (MtFolB [2]): Non-competitive; Ki (MtFolB [2]): 300 ± 100 nM; Kii (MtFolB [2]): 0.6 ± 0.1 µM; IC50 (SaFolB): 1000 nM; IC50 [3]: 41000 nM |
| CCCc1ccc(NC(=O)CSc2nc3c(=O)[nH]c(N)nc3[nH]2)cc1 [Compound 4g, 2-((2-Amino-6-oxo-6,9-dihydro-1H-purin-8-yl)thio)-N-(4-propylphenyl)acetamide] | 900 | – | – |
